Reference: article PMC9574855 (Journal of Medicinal Chemistry, 2022)

How the values were obtained:
403 WT human kinases = assay: DiscoverX scanMAX kinome-wide selectivity at 1 μM; type: binding
PIKfyve [1] = molecular target: T1, PIKfyve (Homo sapiens, UniProt Q9Y2I7); assay: cell-based
PIKfyve [2] = molecular target: T1, PIKfyve; assay: biochemical; type: biochemical
DBT cells = assay: LDH cell viability assay in DBT cells; type: cell-based, mouse; conditions: up to 10 μM
[3] = test system: His6-SARS-CoV-2 spike protein uptake by HEK293T-ACE2 cells; assay: Spike uptake assay in HEK293T-ACE2 cells; type: cell-based, human; conditions: 1 μM
[4] = test system: His6-SARS-CoV-2 spike protein uptake by Calu-3 cells; assay: Spike uptake assay in Calu-3 cells; type: cell-based; conditions: 1 μM
[5] = test system: His6-SARS-CoV-2 spike protein uptake by Caco-2 cells; assay: Spike uptake assay in Caco-2 cells; type: cell-based; conditions: 1 μM
[6] = test system: lentivirus pseudotyped with the SARS-CoV-2 spike glycoprotein; type: cell-based; conditions: Calu-3 cells, 1 μM
bald GFP lentivirus = type: cell-based; conditions: Calu-3 cells, 1 μM
SH-SY5Y cells = assay: Lysosomal staining; type: cell-based, human; conditions: 5 μM, 24 h
MYLK4 = molecular target: T2, MYLK4 (Homo sapiens, UniProt Q86YV6); assay: NanoBRET assay; type: cell-based
T2 sequence (Q86YV6 1-388): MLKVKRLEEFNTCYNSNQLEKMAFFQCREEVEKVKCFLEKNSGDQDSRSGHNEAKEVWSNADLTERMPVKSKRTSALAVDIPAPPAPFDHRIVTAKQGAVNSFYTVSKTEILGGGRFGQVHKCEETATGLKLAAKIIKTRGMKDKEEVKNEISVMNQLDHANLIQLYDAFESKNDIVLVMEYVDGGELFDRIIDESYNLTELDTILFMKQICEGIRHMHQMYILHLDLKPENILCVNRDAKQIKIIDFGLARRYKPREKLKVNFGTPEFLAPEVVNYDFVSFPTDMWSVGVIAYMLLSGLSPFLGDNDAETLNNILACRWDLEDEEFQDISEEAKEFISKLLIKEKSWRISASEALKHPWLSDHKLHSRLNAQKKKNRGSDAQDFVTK

MHV-nLuc virus = assay: microbe, parasite or virus in culture; type: cell-based, mouse hepatitis virus (MHV); conditions: for inhibition of viral replication (MHV-nLuc), in words: DBT cells; for IC50: Murine coronavirus, read-out: MHV replication pIC50 (converted)
[7] = test system: small panel of understudied kinases; assay: Eurofins enzymatic profiling in targeted kinase panel; type: biochemical, human; conditions: 1 μM, Table S2 panel
SARS-CoV-2-nLuc = assay: microbe, parasite or virus in culture; type: cell-based
A549-ACE2 cells = conditions: LDH assay
[8] = PIKfyve NB IC50, NanoBRET, HEK293 cells

T1 sequence (Q9Y2I7 whole entry): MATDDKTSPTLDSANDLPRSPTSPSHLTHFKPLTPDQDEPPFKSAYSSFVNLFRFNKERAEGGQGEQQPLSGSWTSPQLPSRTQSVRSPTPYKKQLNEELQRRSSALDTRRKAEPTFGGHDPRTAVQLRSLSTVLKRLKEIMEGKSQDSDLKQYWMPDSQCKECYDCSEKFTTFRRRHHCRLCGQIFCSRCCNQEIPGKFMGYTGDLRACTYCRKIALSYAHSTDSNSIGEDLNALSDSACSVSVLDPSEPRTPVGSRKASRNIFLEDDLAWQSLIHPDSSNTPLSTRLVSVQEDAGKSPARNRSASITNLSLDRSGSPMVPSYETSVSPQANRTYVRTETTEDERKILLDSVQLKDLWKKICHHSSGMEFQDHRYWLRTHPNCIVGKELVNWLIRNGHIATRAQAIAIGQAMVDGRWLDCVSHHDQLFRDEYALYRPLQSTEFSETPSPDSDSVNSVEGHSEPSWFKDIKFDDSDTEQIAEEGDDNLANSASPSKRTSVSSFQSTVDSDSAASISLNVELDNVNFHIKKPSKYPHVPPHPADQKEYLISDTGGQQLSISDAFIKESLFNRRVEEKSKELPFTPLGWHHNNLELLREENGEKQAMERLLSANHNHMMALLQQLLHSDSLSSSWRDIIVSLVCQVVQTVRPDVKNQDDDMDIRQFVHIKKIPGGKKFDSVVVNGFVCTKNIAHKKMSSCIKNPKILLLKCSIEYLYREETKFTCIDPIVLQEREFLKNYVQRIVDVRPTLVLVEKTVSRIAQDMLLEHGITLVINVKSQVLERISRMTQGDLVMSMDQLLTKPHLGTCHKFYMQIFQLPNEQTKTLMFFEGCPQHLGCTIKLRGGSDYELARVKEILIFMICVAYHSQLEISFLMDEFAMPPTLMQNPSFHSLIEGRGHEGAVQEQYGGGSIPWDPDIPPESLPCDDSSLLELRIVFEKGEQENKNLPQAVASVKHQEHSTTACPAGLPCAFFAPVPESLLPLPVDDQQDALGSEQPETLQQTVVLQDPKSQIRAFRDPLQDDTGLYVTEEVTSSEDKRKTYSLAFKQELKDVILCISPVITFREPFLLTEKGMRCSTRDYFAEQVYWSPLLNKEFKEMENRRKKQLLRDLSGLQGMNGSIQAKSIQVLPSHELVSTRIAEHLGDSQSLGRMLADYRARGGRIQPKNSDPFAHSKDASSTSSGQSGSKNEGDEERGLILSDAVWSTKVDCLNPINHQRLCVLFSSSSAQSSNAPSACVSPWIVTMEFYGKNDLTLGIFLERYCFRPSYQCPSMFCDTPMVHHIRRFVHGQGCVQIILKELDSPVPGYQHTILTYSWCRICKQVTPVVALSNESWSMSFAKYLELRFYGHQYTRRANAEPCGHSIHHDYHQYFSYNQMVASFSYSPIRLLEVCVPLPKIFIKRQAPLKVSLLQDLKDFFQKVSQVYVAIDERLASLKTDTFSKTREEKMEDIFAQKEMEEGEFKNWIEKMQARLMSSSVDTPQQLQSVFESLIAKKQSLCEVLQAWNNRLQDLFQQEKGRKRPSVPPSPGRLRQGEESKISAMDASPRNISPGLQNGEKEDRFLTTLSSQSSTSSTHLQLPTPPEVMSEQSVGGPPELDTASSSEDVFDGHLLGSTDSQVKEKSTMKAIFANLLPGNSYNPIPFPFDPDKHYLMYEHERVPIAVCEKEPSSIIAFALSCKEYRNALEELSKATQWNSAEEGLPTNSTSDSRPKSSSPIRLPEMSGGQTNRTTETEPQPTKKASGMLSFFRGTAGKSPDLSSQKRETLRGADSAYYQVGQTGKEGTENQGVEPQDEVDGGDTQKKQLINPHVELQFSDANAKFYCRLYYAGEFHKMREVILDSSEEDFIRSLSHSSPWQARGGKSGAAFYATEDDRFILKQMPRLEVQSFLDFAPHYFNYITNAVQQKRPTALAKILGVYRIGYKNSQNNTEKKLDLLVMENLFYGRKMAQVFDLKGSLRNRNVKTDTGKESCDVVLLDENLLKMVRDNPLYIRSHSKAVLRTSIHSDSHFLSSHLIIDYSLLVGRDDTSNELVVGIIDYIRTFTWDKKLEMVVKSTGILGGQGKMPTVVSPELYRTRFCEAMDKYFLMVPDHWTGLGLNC

SMILES: CC(C)(O)C#Cc1ccc2[nH]c3c(c2c1)-c1nc(N)ncc1CCCC3 [compound 2, 4-(2-Amino-6,7,8,9-tetrahydro-5H-pyrimido[4′,5′:3,4]cycloocta[1,2-b]indol-12-yl)-2-methylbut-3-yn-2-ol]
- # scanMAX kinases with PoC < 10 (403 WT human kinases): 3

SMILES: CC(C)(O)C#Cc1ccc2[nH]c3c(c2c1)-c1nc(N)ncc1CC3 [compound 1, 4-(2-Amino-6,7-dihydro-5H-pyrimido[5,4-c]carbazol-10-yl)-2-methylbut-3-yn-2-ol]
- # scanMAX kinases with PoC < 10 (403 WT human kinases): 20

SMILES: Cn1cc(-c2ccc3[nH]c4c(c3c2)-c2nc(N)ncc2CC4)cn1 [compound 12, 10-(1-Methyl-1H-pyrazol-4-yl)-6,7-dihydro-5H-pyrimido[5,4-c]carbazol-2-amine]
- # scanMAX kinases with PoC < 10 (403 WT human kinases): 7

SMILES: CC(C)(O)CC#Cc1ccc2[nH]c3c(c2c1)-c1nc(N)ncc1CCC3 [compound 24, 5-(2-Amino-5,6,7,8-tetrahydropyrimido[4′,5′:3,4]cyclohepta[1,2-b]indol-11-yl)-2-methylpent-4-yn-2-ol]
- # scanMAX kinases with PoC < 10 (403 WT human kinases): 11–14

SMILES: CC(O)C#Cc1ccc2[nH]c3c(c2c1)-c1nc(N)ncc1CCC3 (stereo not shown) [compound 21, 4-(2-Amino-5,6,7,8-tetrahydropyrimido[4′,5′:3,4]cyclohepta[1,2-b]indol-11-yl)but-3-yn-2-ol]
- IC50 (PIKfyve [1]; [8]): < 20 nM

SMILES: Cn1cncc1C#Cc1ccc2[nH]c3c(c2c1)-c1nc(N)ncc1CCCC3 [compound 27, 12-((1-Methyl-1H-imidazol-5-yl)ethynyl)-6,7,8,9-tetrahydro-5H-pyrimido[4′,5′:3,4]cycloocta[1,2-b]indol-2-amine]
- # scanMAX kinases with PoC < 10 (403 WT human kinases): 0

SMILES: Nc1ncc2c(n1)-c1c([nH]c3ccc(C#Cc4ccncc4)cc13)CC2 [compound 4, 10-(Pyridin-4-ylethynyl)-6,7-dihydro-5H-pyrimido[5,4-c]carbazol-2-amine]
- # scanMAX kinases with PoC < 10 (403 WT human kinases): 1

SMILES: Nc1ncc2c(n1)-c1c([nH]c3ccc(C#Cc4ccncc4)cc13)CCC2 [compound 5, 11-(Pyridin-4-ylethynyl)-5,6,7,8-tetrahydropyrimido[4′,5′:3,4]cyclohepta[1,2-b]indol-2-amine]
- # scanMAX kinases with PoC < 10 (403 WT human kinases): 5

SMILES: CC(C)(C#Cc1ccc2[nH]c3c(c2c1)-c1nc(N)ncc1CCC3)CO [compound 23, 4-(2-Amino-5,6,7,8-tetrahydropyrimido[4′,5′:3,4]cyclohepta[1,2-b]indol-11-yl)-2,2-dimethylbut-3-yn-1-ol]
- # scanMAX kinases with PoC < 10 (403 WT human kinases): 11–14

SMILES: CC(C)C(O)C#Cc1ccc2[nH]c3c(c2c1)-c1nc(N)ncc1CC3 (stereo not shown) [compound 10, 1-(2-Amino-6,7-dihydro-5H-pyrimido[5,4-c]carbazol-10-yl)-4-methylpent-1-yn-3-ol]
- # scanMAX kinases with PoC < 10 (403 WT human kinases): 11

SMILES: CC(C)(O)C#Cc1ccc2[nH]cc(-c3ccnc(N)n3)c2c1 [compound 3, 4-(3-(2-Aminopyrimidin-4-yl)-1H-indol-5-yl)-2-methylbut-3-yn-2-ol]
- # scanMAX kinases with PoC < 10 (403 WT human kinases): 34

SMILES: CN(C)CC#Cc1ccc2[nH]c3c(c2c1)-c1nc(N)ncc1CCCC3 [compound 29, 12-(3-(Dimethylamino)prop-1-yn-1-yl)-6,7,8,9-tetrahydro-5H-pyrimido[4′,5′:3,4]cycloocta[1,2-b]indol-2-amine]
- # scanMAX kinases with PoC < 10 (403 WT human kinases): 0

SMILES: CCC(C)(O)C#Cc1ccc2[nH]c3c(c2c1)-c1nc(N)ncc1CCC3 (stereo not shown) [compound 25, 1-(2-Amino-5,6,7,8-tetrahydropyrimido[4′,5′:3,4]cyclohepta[1,2-b]indol-11-yl)-3-methylpent-1-yn-3-ol]
- IC50 (PIKfyve [1]; [8]): < 20 nM

SMILES: CN(C)CC#Cc1ccc2[nH]c3c(c2c1)-c1nc(N)ncc1CCC3 [compound 17, 11-(3-(Dimethylamino)prop-1-yn-1-yl)-5,6,7,8-tetrahydropyrimido[4′,5′:3,4]cyclohepta[1,2-b]indol-2-amine]
- IC50 (PIKfyve [2]): < 100 nM
- IC50 (PIKfyve [1]; PIKfyve NanoBRET IC50, bound stated with SGC probe criteria): < 1000 nM
- effect on cell viability in DBT cells (DBT cells): no significant effect on cell viability up to 10 μM
- His6-SARS-CoV-2 spike protein uptake [3]: significantly reduced spike protein uptake
- His6-SARS-CoV-2 spike protein uptake [4]: efficiently reduced spike protein uptake
- His6-SARS-CoV-2 spike protein uptake [5]: efficiently reduced spike protein uptake
- entry of lentivirus pseudotyped with SARS-CoV-2 spike glycoprotein [6]: inhibition of pseudoviral entry
- entry of bald lentivirus (bald GFP lentivirus): entry of bald lentivirus was not impacted
- vacuoles in LysoTracker-stained cells (SH-SY5Y cells): vacuoles are present
- IC50 (MYLK4): 265 nM

SMILES: Nc1ncc2c(n1)-c1c([nH]c3ccc(-c4ccc(F)cc4)cc13)CCC2 [compound 8, 11-(4-Fluorophenyl)-5,6,7,8-tetrahydropyrimido[4′,5′:3,4]cyclohepta[1,2-b]indol-2-amine]
- selectivity over all other kinases evaluated (PIKfyve [2]; versus PIKfyve enzymatic and NanoBRET IC50 values): > 415 fold
- # scanMAX kinases with PoC < 10 (403 WT human kinases): 2
- inhibition of viral replication (MHV-nLuc), in words (MHV-nLuc virus): inhibited viral replication
- effect on cell viability in DBT cells (DBT cells): no significant effect on cell viability up to 10 μM
- His6-SARS-CoV-2 spike protein uptake [3]: significantly reduced spike protein uptake
- entry of lentivirus pseudotyped with SARS-CoV-2 spike glycoprotein [6]: inhibition of pseudoviral entry
- entry of bald lentivirus (bald GFP lentivirus): entry of bald lentivirus was not impacted
- vacuoles in LysoTracker-stained cells (SH-SY5Y cells): vacuoles are present
- highest inhibition of any kinase in the targeted enzymatic panel [7]: ≤ 55%

SMILES: CCC(=O)Nc1cc(Nc2cc(NC3CC3)n3ncc(C#N)c3n2)ccc1C [SGC-CK2-1, reference compound]
- His6-SARS-CoV-2 spike protein uptake [3]: efficiently decreased spike protein uptake

SMILES: Cn1cc(-c2ccc3[nH]c4c(c3c2)-c2nc(N)ncc2CCC4)cn1 [compound 13, 11-(1-Methyl-1H-pyrazol-4-yl)-5,6,7,8-tetrahydropyrimido[4′,5′:3,4]cyclohepta[1,2-b]indol-2-amine]
- # scanMAX kinases with PoC < 10 (403 WT human kinases): 8

SMILES: CC(C)C(O)C#Cc1ccc2[nH]c3c(c2c1)-c1nc(N)ncc1CCC3 (stereo not shown) [compound 11, 1-(2-Amino-5,6,7,8-tetrahydropyrimido[4′,5′:3,4]cyclohepta[1,2-b]indol-11-yl)-4-methylpent-1-yn-3-ol]
- # scanMAX kinases with PoC < 10 (403 WT human kinases): 7

SMILES: CC(C)(O)C#Cc1ccc2[nH]c3c(c2c1)-c1nc(N)ncc1CCC3 [AMG28, 4-(2-Amino-5,6,7,8-tetrahydropyrimido[4′,5′:3,4]cyclohepta[1,2-b]indol-11-yl)-2-methylbut-3-yn-2-ol, reference compound]
- # scanMAX kinases with PoC < 10 (403 WT human kinases): 21

SMILES: Nc1ncc2c(n1)-c1c([nH]c3ccc(-c4ccc(F)cc4)cc13)CC2 [compound 7, 10-(4-Fluorophenyl)-6,7-dihydro-5H-pyrimido[5,4-c]carbazol-2-amine]
- # scanMAX kinases with PoC < 10 (403 WT human kinases): 3

SMILES: COC(C)(C)C#Cc1ccc2[nH]c3c(c2c1)-c1nc(N)ncc1CCC3 [compound 20, 11-(3-Methoxy-3-methylbut-1-yn-1-yl)-5,6,7,8-tetrahydropyrimido[4′,5′:3,4]cyclohepta[1,2-b]indol-2-amine]
- # scanMAX kinases with PoC < 10 (403 WT human kinases): 11–14

SMILES: CCC(O)(C#Cc1ccc2[nH]c3c(c2c1)-c1nc(N)ncc1CCC3)CC [compound 26, 1-(2-Amino-5,6,7,8-tetrahydropyrimido[4′,5′:3,4]cyclohepta[1,2-b]indol-11-yl)-3-ethylpent-1-yn-3-ol]
- IC50 (PIKfyve [1]; [8]): < 20 nM
- IC50 (MHV-nLuc virus): 74.1 nM
- IC50 (SARS-CoV-2-nLuc; Severe acute respiratory syndrome coronavirus 2, A549-ACE2, 46 h, read-out: SARS-CoV-2 replication IC50): 23.9 nM

SMILES: Nc1ncc2c(n1)-c1c([nH]c3ccc(C#Cc4ccncc4)cc13)CCCC2 [compound 6, 12-(Pyridin-4-ylethynyl)-6,7,8,9-tetrahydro-5H-pyrimido[4′,5′:3,4]cycloocta[1,2-b]indol-2-amine]
- # scanMAX kinases with PoC < 10 (403 WT human kinases): 0

SMILES: Nc1ncc2c(n1)-c1c([nH]c3ccc(-c4ccc(F)cc4)cc13)CCCC2 [compound 9, 12-(4-Fluorophenyl)-6,7,8,9-tetrahydro-5H-pyrimido[4′,5′:3,4]cycloocta[1,2-b]indol-2-amine]
- # scanMAX kinases with PoC < 10 (403 WT human kinases): 2

SMILES: Nc1ncc2c(n1)-c1c([nH]c3ccc(C4CC4)cc13)CCCC2 [compound 30, 12-Cyclopropyl-6,7,8,9-tetrahydro-5H-pyrimido[4′,5′:3,4]cycloocta[1,2-b]indol-2-amine]
- # scanMAX kinases with PoC < 10 (403 WT human kinases): 1
- inhibition of viral replication (MHV-nLuc), in words (MHV-nLuc virus): failed to inhibit viral replication
- IC50 (MHV-nLuc virus): 10000 nM
- inhibition of SARS-CoV-2 replication, in words (SARS-CoV-2-nLuc; A549-ACE2 cells): did not inhibit SARS-CoV-2 replication
- effect on cell viability in DBT cells (DBT cells): nontoxic up to 10 μM
- His6-SARS-CoV-2 spike protein uptake [3]: no effect on spike protein uptake
- entry of lentivirus pseudotyped with SARS-CoV-2 spike glycoprotein [6]: did not inhibit pseudoviral entry
- entry of bald lentivirus (bald GFP lentivirus): entry of bald lentivirus was not impacted
- toxicity to A549-ACE2 cells (A549-ACE2 cells): did not inhibit SARS-CoV-2 replication or elicit any toxicity
